Calls of active or inactive are those of the source. No cut-off for these calls is given here.
What was measured:
[1] = target: Bromodomain-containing protein 4 (Homo sapiens, UniProt O60885); test: Inhibition of His-tagged BRD4-BD1 (unknown origin) incubated for 30 mins in presence of ATP by Alphascreen assay
SUD4 [2] = test: Antiproliferative against activity human SU-DHL-4 cells assessed as inhibition of cell growth incubated for 72 hrs by Celltiter-luminescence analysis; assay type: functional, cell-based; conditions: SU-DHL-4, 72 h
[3] = target: Serine/threonine-protein kinase mTOR (Homo sapiens, UniProt P42345); test: Inhibition of mTOR (unknown origin) incubated for 2 hrs in presence of ATP by ADP-kinaseGlo reagent based assay
Homo sapiens = organism: Homo sapiens; test: Inhibition of human p110alpha-H1047R mutant/p85alpha at 1 uM relative to control
[4] = target: Phosphatidylinositol 4-phosphate 5-kinase type-1 alpha (Homo sapiens) (UniProt Q99755); test: Inhibition of human PIP5K1alpha at 1 uM relative to control
HUVEC = test: Cytotoxicity against HUVEC cells assessed as effect on cell proliferation at 5 to 20 uM incubated for 72 hrs by Celltiter-luminescence analysis; assay type: toxicity, cell-based; conditions: human, dose 5-20 µM
WI-38 = test: Cytotoxicity against human WI-38 cells assessed as effect on cell proliferation at 5 to 20 uM incubated for 72 hrs by Celltiter-luminescence analysis; assay type: toxicity, cell-based; conditions: wi-38, 72 h, dose 5-20 µM
SUD4 [5] = test: Induction of apoptosis in human SU-DHL-4 cells assessed as early apoptotic cells at 0.5 uM incubated for 24 hrs by Annexin V-FITC/PI staining based flow cytometric analysis (reference value: 25.3 %); assay type: functional
SUD4 [6] = test: Induction of apoptosis in human SU-DHL-4 cells assessed as early apoptotic cells at 1 uM incubated for 24 hrs by Annexin V-FITC/PI staining based flow cytometric analysis (reference value: 25.3 %); assay type: functional
SUD4 [7] = test: Induction of apoptosis in human SU-DHL-4 cells assessed as necrotic cells at 1 uM incubated for 24 hrs by Annexin V-FITC/PI staining based flow cytometric analysis (reference value: 0.642 %); assay type: functional
SU-DHL-6 [8] = test: Induction of apoptosis in human SU-DHL-6 cells assessed as viable cells at 0.25 uM incubated for 24 hrs by Annexin V-FITC/PI staining based flow cytometric analysis (reference value: 61.2 %); assay type: functional; conditions: read-out: Activity
[9] = Cmax in female BALB/c mouse at 1 mg/kg, iv measured after 12 hrs by LC-MS/MS analysis; assay type: ADME, organism-based; conditions: in vivo
[10] = Tmax in female BALB/c mouse at 1 mg/kg, iv measured after 12 hrs by LC-MS/MS analysis; assay type: ADME, organism-based; conditions: in vivo
[11] = AUC (0 to t) in female BALB/c mouse at 20 mg/kg, po measured after 24 hrs by LC-MS/MS analysis; assay type: ADME, organism-based; conditions: in vivo
SU-DHL-6 [12] = test: Antitumor activity against human SU-DHL-6 cells xenografted in female BALB/c mouse model assessed as reduction in c-Myc level in tumor at 20 mg/kg, po administered once daily via gavage for 15 days by Western blot analysis; assay type: functional, organism-based; conditions: time 15.0 day

Chain of Phosphatidylinositol 4-phosphate 5-kinase type-1 alpha (Homo sapiens) (Q99755 whole entry): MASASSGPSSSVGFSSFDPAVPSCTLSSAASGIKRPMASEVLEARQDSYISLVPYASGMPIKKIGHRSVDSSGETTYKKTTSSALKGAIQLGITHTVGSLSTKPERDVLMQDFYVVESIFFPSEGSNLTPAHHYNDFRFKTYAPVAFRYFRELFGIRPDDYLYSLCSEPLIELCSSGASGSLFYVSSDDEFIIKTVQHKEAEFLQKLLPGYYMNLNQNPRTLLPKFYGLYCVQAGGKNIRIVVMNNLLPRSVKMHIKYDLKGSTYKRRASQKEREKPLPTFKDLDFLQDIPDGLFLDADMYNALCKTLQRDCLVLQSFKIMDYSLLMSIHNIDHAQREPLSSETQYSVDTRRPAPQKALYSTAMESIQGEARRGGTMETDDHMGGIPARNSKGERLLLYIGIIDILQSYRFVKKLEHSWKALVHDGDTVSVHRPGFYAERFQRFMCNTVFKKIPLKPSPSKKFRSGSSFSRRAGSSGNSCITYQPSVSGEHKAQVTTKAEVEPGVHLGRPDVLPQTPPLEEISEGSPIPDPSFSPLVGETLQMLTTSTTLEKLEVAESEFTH

Cn1cc(-c2nc(N3CCOCC3)c3sc(CN4CCC(C(C)(C)O)CC4)cc3n2)c2cc[nH]c2c1=O
IC50 [1]: 19 nM | IC50 (SUD4 [2]): 91 nM | IC50 [3]: > 10000 nM | inhibition (Homo sapiens): 33.7% | inhibition [4]: 72.6% | Activity (HUVEC): Non-toxic | Activity (WI-38): Non-toxic | Activity (SUD4 [5]): 30.8% | Activity (SUD4 [6]): 45.3% | Activity (SUD4 [7]): 0.505% | viability at 0.25 µM (SU-DHL-6 [8]): 53.7% | Cmax [9]: 544 ng/mL | Tmax [10]: 1.98 min | AUC(0-t) at 24 h [11]: 2190 ng·h/mL | Activity (SU-DHL-6 [12]): Active

Source: ChEMBL document CHEMBL6153089, “Design, Synthesis, and Biological Evaluation of Thieno[3,2-d]pyrimidine Derivatives as the First Bifunctional PI3Kδ Isoform Selective/Bromodomain and Extra-Terminal Inhibitors” (J Med Chem, 2025)
